Key:
[1] = test system: Klebsiella pneumoniae Kpn St147 (NDM-1 and KPC-2); experiment: MIC determination of cefepime with zinc chelator and avibactam (checkerboard, broth microdilution); assay type: cell-based
Protocol: Antimicrobial susceptibility testing (AST) by broth microdilution was performed according to The European Committee on Antimicrobial Susceptibility Testing. Reading guide for broth microdilution. Version 4.0, 2022 (see: http://www.eucast.org).
Checkerboard 96-well plates (Corning 3788) were made by conducting serial two-fold dilutions of cefepime in cation-adjusted Mueller Hinton II broth (caMHB; Thermo Scientific, T3462), in columns across the microtiter plate (64-0.03 μg/ml). Additionally, avibactam was added to rows 3 to 8 in concentrations of 64, 16, 8, 4, 1 and 0.25 μg/ml, respectively. The zinc chelator was added to the wells of the plate, where applicable. Three plates were made per experiment, one without the zinc chelator (plate 1), one with 16 μg/ml of the zinc chelator (plate 2) and one with 32 μg/ml of the zinc chelator (plate 3). The first row in all plates was used as a positive control for cefepime only, and the second row included the zinc chelator in addition to cefepime (no avibactam added to rows 1 or 2). The zinc chelator was added at the indicated concentration, to rows 3-8 of plates 2 and 3.
The effect of the combination of zinc chelator/FEP/avibactam was tested on a clinically isolated Klebsiella pneumoniae Kpn St147 actively constitutionally expressing the two resistance mechanisms NDM-1 and KPC-2 simultaneously. As a negative control, bacteria+FEP was tested alone. As a positive control, bacteria+FEP+zinc chelator was used. In Tables 1 and 2, concentrations (μg/ml) of FEP are given in the top row left to right and avibactam concentrations (μg/ml) are given top to bottom in column 1.
The fractional inhibitory concentration (FIC) is defined as the concentration that kills when used in combination with another agent divided by the concentration that has the same effect when used alone. The FIC index (FICI) for the combination of two agents is the sum of their individual FIC values. […] The European Committee for Antimicrobial Susceptibility Testing (EUCAST) of the European Society of Clinical Microbiology and Infectious Diseases (ESCMID) 2000 adopts the following definitions to determine the susceptibility of bacteria to an antimicrobial agent (see EUCAST Definitive Document E. Def 1.2: Terminology relating to methods for the determination of susceptibility of bacteria to antimicrobial agents. Clin. Microbiol. Infect. 2000; 6(9): 503-508): • FICI value≤0.5; synergy • 0.5<FICI value≤1; additive effect • 1<FICI value≤2; indifferent effect • FICI≥2; antagonistic effect
To test for synergy, all data were subjected to the following formula in which A=zinc chelator; B=cefepime; and C=avibactam:
ΣFICI=MICA(combination)/MICA (alone)+MICB(combination)/MICB (alone)+MICC(combination)/MICC (alone)

[2] = test system: various bacterial strains harbouring resistance enzymes; experiment: MIC determination, checkerboard assays (summary statements); assay type: cell-based; details: Examples 3-23
Protocol: Thus, in most of the experiments, a Fractional Inhibitory Concentration Index (FICI) could not be calculated, and the conclusion of synergy was made through visual reading of the bacterial growth in the wells in the combination experiment.
Antimicrobial susceptibility testing (AST) by broth microdilution (MIC determination) was performed according to The European Committee on Antimicrobial Susceptibility Testing (EUCAST) guidelines (see Reading guide for broth microdilution Version 5.0, 2024: https://www.eucast.org).
Sterile clear round bottom polystyrene (non-treated) 96-well microplates (Corning 3788) were used for making serial two-fold dilutions of the antibiotic and the serine sBLI in cation-adjusted Mueller Hinton II broth (caMHB; Thermo Scientific, T3462, containing 29.4 μM Zn^2+), across the columns of the microtiter plate (256-0.06 μg/mL; columns 1-12). The checkerboard plates were all made by keeping the sBLI at a fixed ratio relative to antibiotic (absolute concentrations of each, in μg/mL) to all wells containing sample in each plate. Additionally, a set of samples were included in each test plate, where the zinc chelator was added, at various fixed concentrations, of 16 μg/mL, 8 μg/mL and/or 4 μg/mL (as specified in each Example). All sample wells contained growth medium (caMHB), and inoculated bacteria at a final inoculum between 3-7×10^5 CFU/mL. […]

[3] = test system: many strains of Acinetobacter baumannii; details: in combination with meropenem; cited from earlier work

CN(C[C@H](O)[C@@H](O)[C@H](O)[C@H](O)CO)C(=O)c1ccc(CN(Cc2ccccn2)Cc2ccccn2)nc1 [zinc chelator]
FICI Zinc Chelator ([1]; zinc chelator 8 μg/mL, with FEP and avibactam): 0.004
amplification of the inhibitory effect ([1]; zinc chelator at 16 μg/ml, with cefepime and avibactam): about 16 fold
intrinsic antibiotic effect [2]: neither the zinc chelator nor the sBLI have intrinsic antibiotic effect
effect of combination with meropenem [3]: poor effect

From patent US20260325538A1, “THERAPY” (priority 2023, published 2026)
